This passage reports IC50 results from US8828997B2, “2,3-dihydro-1H-imidazo(1,2-a)pyrimidin-5-one derivatives, preparation thereof, and pharmaceutical use thereof” (Sanofi, priority 2009, dated 2014).

pIC50: −log10 of the molar value.

Experiment [1] concerns translocation of the LC3 protein in Hela GFP-LC3 cells. In words: Translocation of the LC3 protein in Hela human cells measured by image analysis cytometry (test C, autophagy). The format is cell-based. As to conditions: Homo sapiens, HeLa, 2 h, EBSS + 10 μM hydroxychloroquine, cells with LC3 granulations, absolute IC50. The method, boiled down: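 HeLa clone stably expressing GFP-LC3, starved in EBSS with 10 μM hydroxychloroquine plus compound (10 nM to 1 μM range, 0.1% DMSO) for 2 h at 37 °C. After PFA fixation and Hoechst staining, LC3 translocation read by image analysis cytometry; IC50 from dose-response curves, mean of 2 independent experiments.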

The test system of experiment [2] is AKT protein phosphorylated on serine 473 (pAKT-S473) in PC3 human prostate carcinoma cells. In words: pAKT expression in PC3 human prostate carcinoma cells measured by western blotting (test A). The class given is cell-based. As to conditions: PC-3, 1 to 2 h incubation, absolute IC50. As to the method: The inhibitory activity of the molecules on AKT phosphorylation is measured either by western blotting using the technique described below, or by the MSD Multi-spot Biomarker detection technique from Meso Scale Discovery also described below.
Study of pAKT Expression in PC3 Human Prostate Carcinoma Cells Measured by Western Blotting (test A):
This test is based on measuring the expression of the AKT protein phosphorylated on serine 473. The phosphorylation of AKT (pAKT) is measured by western blotting in the PC3 human prostate carcinoma line (ATCC CRL-1435), using an antibody that specifically recognises pAKT-S473.
On day 1, the PC3 cells are seeded into 6-well plates (TPP, #92006) at the concentration of 0.8×10^6 cells/well in 1800 μl of DMEM medium (DMEM Gibco #11960-044) containing 10% of foetal calf serum (SVF Gibco, #10500-056) and 1% glutamine (L-Glu Gibco #25030-024), and incubated at 37° C., 5% CO2, overnight.
On day 2, the cells are incubated in the presence or absence of the test products for 1 to 2 hours at 37° C. in the presence of 5% CO2. The molecules, diluted in dimethyl sulphoxide (DMSO Sigma #D2650), are added from a 10-times concentrated stock solution, the final percentage of DMSO being 0.1%. The molecules are tested either at a single concentration of less than or equal to 10 μM, or at increasing concentrations in a range that can extend from less than 1 nM to 10 μM.
After this incubation, the cells are lysed for the preparation of the proteins. After the culture medium has been drawn off, the cells are rinsed with 1 ml of PBS (DPBS Gibco, #14190-094), recovered by scraping in 200 μl of complete HNTG buffer and transferred into a 96-well plate (Greiner #651201), and lysed for 1 h on ice. The HNTG buffer is composed of the following mixture: 50 mM hepes, 150 mM NaCl, 1% triton, 10% glycerol, with extemporaneous addition of one Mini Protease Inhibitor Cocktail tablet (Roche 1836153) and of one Phosphatase Inhibitor Cocktail tablet (Roche104906837001) per 10 ml of buffer.
The lysate is centrifuged for 10 min at 6000 rpm. 155 μl of supernatant are recovered. 150 μl are incubated for denaturation for 5 min at 95° C. in the presence of 4× NuPAGE LDS Sample Buffer diluted 4-fold (InVitrogen ref NP0007) and of 10× NuPAGE Sample Reducing Agent diluted 10-fold (InVitrogen ref NP0009). These samples are then frozen at −20° C. 5 μl are assayed by the microBCA technique according to the technical bulletin of the MicroBCA Protein Assay Kit (Pierce #23235).
For protein separation, 20 μg of proteins are loaded on to a NU-PAGE 4-12% Bis Tris Gel 12 well (InVitrogen ref NP0322BOX) and the migration is carried out for 1 h 30 in 20× NU-PAGE MOPS SDS Running Buffer diluted 20-fold (InVitrogen ref NP0001), at 150 volts.
The gel is then transferred on to an Invitrolon PVDF membrane (Invitrogen #LC2007) permeabilised before and after a few seconds in ethanol (Ethanol Fischer Scientific #E/0600DF/15).
The transfer is carried out in a Biorad tank at 30 volts overnight or at 60 volts for 3 hours, in the presence of 20× NUPAGE Transfer Buffer diluted 20-fold (InVitrogen ref NP0006).
The membrane is then saturated in saturating solution composed of TBS (10× Tris Buffered Saline, Sigma #T5912, diluted 10-fold), 0.1% Tween 20 (Sigma #P5927) and 3% BSA (Bovine Albumin Serum Fraction V, Sigma #A4503) for 6 h after overnight transfer or else for 1 h after transfer for a period of 3 h.
The primary antibodies are diluted to 1/1000 for the anti-phospho AKT-Ser473 antibody (1931-12, rabbit monoclonal, cat#4058 from Cell Signaling Technology Abcam), in saturating solution composed of PBS, 0.1% Tween 20 and 3% BSA, and then shaken overnight at 4° C.
Two rinses for 5 min in washing solution composed of TBS and 0.1% Tween 20 are carried out before hybridisation of the secondary antibodies. […]

Usually pIC50 stands for the negative decadic logarithm of the IC50, by convention in mol/L. With `COc1ccc(CCN2c3nc(N4CCOCC4)cc(=O)n3C[C@@]2(C)C(F)(F)F)cc1` [Example 1, (S)-1-[2-(4-Methoxyphenyl)ethyl]-2-methyl-7-morpholin-4-yl-2-trifluoromethyl-2,3-dihydro-1H-imidazo[1,2-a]pyrimidin-5-one], the pIC50 was 7.36 in experiment [1] and 7.00 in experiment [2].
